# Measurements taken from patent US20230141101A1, “PDE4 INHIBITOR COMPOUND AND MEDICAL USE THEREOF” (Suzhou Longbotai Pharmaceuticals Co., Ltd., priority 2020, published 2023).
# Legend:
# Type in all cases: biochemical
# Details in all cases: 20 nM
# PDE4A1A = biological target: T1, PDE4A1A (Homo sapiens, UniProt P27815); assay: PDE4 inhibitory activity assay (FAM-cAMP enzymatic reaction), PDE4A1A
# T1 construct: purchased BPS 60040
# Experimental: (§1) The compounds of the present disclosure were tested for their inhibitory activity (IC50 value) against PDE4A1A, PDE4B1, and PDE4D2.
# (§2) Positive compound: Trequinsin (Sigma, Cat No. T20S7).
# (§3) Instrument: Wallac Victor Muti-lable counter (Pekin Elmer) Steps of assay:
# (§4) PDE enzymatic reaction; • 1) PDE was dissolved in 1× reaction solution to prepare 2× enzyme solution; • 2) FAM-cAMP was dissolved in 1× reaction solution to prepare 2× substrate solution; • 3) Corresponding volume of the compound in DMSO was transferred to the reaction plate through Echo 550; • 4) 2× enzyme solution was added into the corresponding wells of the reaction plate and incubated with the compound solution for 15 minutes at room temperature; • 5) 2× substrate solution was added into the corresponding well of the reaction plate to initiate the reaction; • 6) After the reaction plate was incubated at room temperature for 30 min, the reaction was terminated by adding reaction stopping solution. The reaction plate was incubated at room temperature for another 60 minutes;
# (§5) Inhibition rates were calculated with Excel; and IC50 for each compound was calculated with Graphpad prism.
# PDE4B1 = biological target: T2, PDE4B1 (Homo sapiens, UniProt Q07343); assay: PDE4 inhibitory activity assay (FAM-cAMP enzymatic reaction), PDE4B1
# T2 construct: purchased BPS 60041
# Experimental: as §1, §2, §3, §4, §5
# PDE4D2 = PDE4D2 (Homo sapiens, UniProt Q08499); assay: PDE4 inhibitory activity assay (FAM-cAMP enzymatic reaction), PDE4D2
# Experimental: as §1, §2, §3, §4, §5
# Sequence of PDE4D2 (Q08499 303-809): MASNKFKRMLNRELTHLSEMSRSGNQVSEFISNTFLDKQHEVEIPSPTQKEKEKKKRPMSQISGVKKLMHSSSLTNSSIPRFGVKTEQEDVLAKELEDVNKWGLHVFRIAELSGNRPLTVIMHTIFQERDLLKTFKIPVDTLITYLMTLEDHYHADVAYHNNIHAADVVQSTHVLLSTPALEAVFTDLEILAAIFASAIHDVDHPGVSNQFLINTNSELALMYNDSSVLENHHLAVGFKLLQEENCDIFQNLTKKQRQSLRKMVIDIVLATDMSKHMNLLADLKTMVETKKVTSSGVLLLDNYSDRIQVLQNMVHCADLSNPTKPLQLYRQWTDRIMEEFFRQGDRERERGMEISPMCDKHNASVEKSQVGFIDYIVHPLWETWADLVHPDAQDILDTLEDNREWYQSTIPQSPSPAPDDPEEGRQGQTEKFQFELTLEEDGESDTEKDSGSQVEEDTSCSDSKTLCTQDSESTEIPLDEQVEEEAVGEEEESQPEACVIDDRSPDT
# T1 sequence (P27815 1-647 isoform P27815-4): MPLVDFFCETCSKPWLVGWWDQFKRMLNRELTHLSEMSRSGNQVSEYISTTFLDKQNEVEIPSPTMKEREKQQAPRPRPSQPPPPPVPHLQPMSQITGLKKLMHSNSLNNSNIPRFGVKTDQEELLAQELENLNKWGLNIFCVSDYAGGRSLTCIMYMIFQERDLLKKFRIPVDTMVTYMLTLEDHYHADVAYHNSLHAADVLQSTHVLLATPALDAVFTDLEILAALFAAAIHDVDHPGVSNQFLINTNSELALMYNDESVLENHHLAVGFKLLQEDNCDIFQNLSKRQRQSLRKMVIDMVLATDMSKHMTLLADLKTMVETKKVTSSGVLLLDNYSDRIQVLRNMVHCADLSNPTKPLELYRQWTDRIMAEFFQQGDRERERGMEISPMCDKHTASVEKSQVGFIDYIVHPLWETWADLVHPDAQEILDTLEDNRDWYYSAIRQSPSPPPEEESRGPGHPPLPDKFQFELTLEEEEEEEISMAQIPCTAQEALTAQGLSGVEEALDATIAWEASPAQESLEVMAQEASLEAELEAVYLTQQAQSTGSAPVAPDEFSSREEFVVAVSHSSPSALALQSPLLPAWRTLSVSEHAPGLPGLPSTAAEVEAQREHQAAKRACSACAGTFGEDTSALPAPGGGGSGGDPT
# T2 sequence (Q07343 whole entry): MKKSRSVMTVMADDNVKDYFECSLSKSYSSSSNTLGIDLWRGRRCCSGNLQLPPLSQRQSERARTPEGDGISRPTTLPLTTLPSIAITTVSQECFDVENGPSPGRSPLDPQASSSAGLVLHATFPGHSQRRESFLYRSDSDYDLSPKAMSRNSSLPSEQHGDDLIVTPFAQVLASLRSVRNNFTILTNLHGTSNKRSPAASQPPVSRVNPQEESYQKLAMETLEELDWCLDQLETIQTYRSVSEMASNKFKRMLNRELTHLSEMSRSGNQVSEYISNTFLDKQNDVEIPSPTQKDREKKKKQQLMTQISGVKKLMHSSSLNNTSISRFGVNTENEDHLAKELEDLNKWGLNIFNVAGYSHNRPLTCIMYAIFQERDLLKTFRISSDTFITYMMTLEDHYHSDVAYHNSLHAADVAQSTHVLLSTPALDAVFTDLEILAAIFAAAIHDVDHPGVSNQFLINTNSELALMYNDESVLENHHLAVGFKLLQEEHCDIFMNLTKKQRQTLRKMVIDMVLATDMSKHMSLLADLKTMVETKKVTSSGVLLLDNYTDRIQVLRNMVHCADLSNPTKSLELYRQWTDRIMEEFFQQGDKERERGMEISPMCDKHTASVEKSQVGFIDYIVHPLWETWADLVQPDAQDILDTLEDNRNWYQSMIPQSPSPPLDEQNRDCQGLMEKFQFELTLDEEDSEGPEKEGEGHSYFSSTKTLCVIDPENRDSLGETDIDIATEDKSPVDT
SMILES,PDE4 A1 inhibitory effect at 20 nM (PDE4A1A),PDE4 B1 inhibitory effect at 20 nM (PDE4B1),PDE4 D2 inhibitory effect at 20 nM (PDE4D2)
"CCOc1nc([C@@H](CS(C)(=O)=O)N2C(=O)c3csc(NC(=O)CN(C)C)c3C2=O)ccc1OC [Ex. 228, (S)-2-(dimethylamino)-N-(5-(1-(6-ethoxy-5-methoxypyridin-2-yl)-2-(methylsulfonyl)ethyl)-4,6-dioxo-5,6-dihydro-4H-thieno[3,4-c]pyrrol-1-yl)acetamide]",+,+,+
"CCOc1nc([C@@H](CS(C)(=O)=O)n2c(=O)[nH]c3c(C)c(-c4ccc(F)cc4)cnc32)ccc1OC(F)F [Ex. 63, (S)-3-(1-(5-(difluoromethoxy)-6-ethoxypyridin-2-yl)-2-(methylsulfonyl)ethyl)-6-(4-fluorophenyl)-7-methyl-1H-imidazo[4,5-b]pyridin-2(3H)-one]",+,+,+
"CCOc1nc([C@@H](CS(C)(=O)=O)n2c(=O)[nH]c3cc(-c4ccc(F)cc4)cnc32)ccc1OC [Ex. 78, (S)-3-(1-(6-ethoxy-5-methoxypyridin-2-yl)-2-(methylsulfonyl)ethyl)-6-(4-fluorophenyl)-1H-imidazo[4,5-b]pyridin-2(3H)-one]",+,+,+
"CCOc1nc([C@@H](CS(C)(=O)=O)n2c(=O)n(CC(F)(F)F)c3c(C)c(-c4ccccc4C)cnc32)ccc1OC [Ex. 55, (S)-3-(1-(6-ethoxy-5-methoxypyridin-2-yl)-2-(methylsulfonyl)ethyl)-7-methyl-6-(o-methylphenyl)-1-(2,2,2-trifluoroethyl)-1H-imidazo[4,5-b]pyridin-2(3H)-one]",+,+,+
"CCOc1nc([C@@H](CS(C)(=O)=O)n2c(=O)[nH]c3cc(-c4cc(F)c(F)cc4F)cnc32)ccc1OC [Ex. 96, (S)-6-(2,4,5-trifluorophenyl)-3-(1-(6-ethoxy-5-methoxypyridin-2-yl)-2-(methylsulfonyl)ethyl)-1H-imidazo[4,5-b]pyridin-2(3H)-one]",+,+,+
"CCOc1nc([C@@H](CS(C)(=O)=O)n2c(=O)n(CC(F)F)c3c(C)c(-c4ccc(F)cc4)cnc32)ccc1OC(C)C [Ex. 71, (S)-1-(2,2-difluoroethyl)-3-(1-(6-ethoxy-5-isopropoxypyridin-2-yl)-2-(methylsulfonyl)ethyl)-6-(4-fluorophenyl)-7-methyl-1H-imidazo[4,5-b]pyridin-2(3H)-one]",+,+,+
"CCOc1nc([C@@H](CS(C)(=O)=O)n2c(=O)n(C)c3cc(-c4cc(F)ccc4F)ccc32)ccc1OC [Ex. 161, (S)-5-(2,5-difluorophenyl)-1-(1-(6-ethoxy-5-methoxypyridin-2-yl)-2-(methylsulfonyl)ethyl)-3-methyl-1H-benzo[d]imidazol-2(3H)-one]",+,+,+
"CCOc1nc([C@@H](CS(C)(=O)=O)n2c(=O)[nH]c3cc(C(=O)OC(C)C)ccc32)ccc1OC [Ex. 213, (S)-isopropyl 1-(1-(6-ethoxy-5-methoxypyridin-2-yl)-2-(methylsulfonyl)ethyl)-2-oxo-2,3-dihydro-1H-benzo[d]imidazole-5-carboxylate]",+,+,+
"CCOc1nc([C@@H](CS(C)(=O)=O)n2c(=O)n(C)c3c(C)c(-c4ccccc4)cnc32)ccc1OC(F)F [Ex. 66, (S)-3-(1-(5-(difluoromethoxy)-6-ethoxypyridin-2-yl)-2-(methylsulfonyl)ethyl)-1,7-dimethyl-6-phenyl-1H-imidazo[4,5-b]pyridin-2(3H)-one]",+,+,+
"CCOc1nc([C@@H](CS(C)(=O)=O)n2c(=O)n(CC(F)F)c3c(C)c(-c4ccccc4)cnc32)ccc1OC(C)C [Ex. 70, (S)-1-(2,2-difluoroethyl)-3-(1-(6-ethoxy-5-isopropoxypyridin-2-yl)-2-(methylsulfonyl)ethyl)-7-methyl-6-phenyl-1H-imidazo[4,5-b]pyridin-2(3H)-one]",+,+,+
"CCOc1nc([C@@H](CS(C)(=O)=O)n2c(=O)[nH]c3cc(-c4ccccc4C4CC4)ccc32)ccc1OC [Ex. 148, (S)-5-(2-cyclopropylphenyl)-1-(1-(6-ethoxy-5-methoxypyridin-2-yl)-2-(methylsulfonyl)ethyl)-1H-benzo[d]imidazol-2(3H)-one]",+,+,+
"CCOc1nc([C@@H](CS(C)(=O)=O)n2c(=O)n(C)c3cc(-c4ccc(C)cc4F)cnc32)ccc1OC [Ex. 116, (S)-6-(2-fluoro-4-methylphenyl)-3-(1-(6-ethoxy-5-methoxypyridin-2-yl)-2-(methylsulfonyl)ethyl)-1-methyl-1H-imidazo[4,5-b]pyridin-2(3H)-one]",+,+,+
"CCOc1nc([C@@H](CS(C)(=O)=O)n2c(=O)[nH]c3cc(-c4ccccc4C)ccc32)ccc1OC [Ex. 139, (S)-1-(1-(6-ethoxy-5-methoxypyridin-2-yl)-2-(methylsulfonyl)ethyl)-5-(o-methylphenyl)-1H-benzo[d]imidazol-2(3H)-one]",+,+,+
"CCOc1nc([C@@H](CS(C)(=O)=O)n2c(=O)[nH]c3c(C)c(-c4ccccc4C(C)C)cnc32)ccc1OC [Ex. 11, (S)-3-(1-(6-ethoxy-5-methoxypyridin-2-yl)-2-(methylsulfonyl)ethyl)-6-(2-isopropylphenyl)-7-methyl-1H-imidazo[4,5-b]pyridin-2(3H)-one]",+,+,+
"CCOc1nc([C@@H](CS(C)(=O)=O)n2c(=O)n(C)c3cc(-c4cc(C)ccc4C)ccc32)ccc1OC [Ex. 165, (S)-5-(2,5-dimethylphenyl)-1-(1-(6-ethoxy-5-methoxypyridin-2-yl)-2-(methylsulfonyl)ethyl)-3-methyl-1H-benzo[d]imidazol-2(3H)-one]",+,+,+
"CCOc1nc([C@H](CS(C)(=O)=O)n2c(=O)[nH]c3cc(-c4ccccn4)ccc32)ccc1OC [Ex. 195, (R)-1-(1-(6-ethoxy-5-methoxypyridin-2-yl)-2-(methylsulfonyl)ethyl)-5-(pyridin-2-yl)-1H-benzo[d]imidazol-2(3H)-one]",−,−,−
"CCOc1nc([C@@H](CS(C)(=O)=O)n2c(=O)[nH]c3c(C)c(-c4cccc(C)c4C)cnc32)ccc1OC [Ex. 33, (S)-6-(2,3-dimethylphenyl)-3-(1-(6-ethoxy-5-methoxypyridin-2-yl)-2-(methylsulfonyl)ethyl)-7-methyl-1H-imidazo[4,5-b]pyridin-2(3H)-one]",+,+,+
"CCOc1nc([C@H](CS(C)(=O)=O)n2c(=O)[nH]c3c(C)c(-c4ccccc4C#N)cnc32)ccc1OC [Ex. 16, (R)-2-(3-(1-(6-ethoxy-5-methoxypyridin-2-yl)-2-(methylsulfonyl)ethyl)-7-methyl-2-oxo-2,3-dihydro-1H-imidazo[4,5-b]pyridin-6-yl)benzonitrile]",−,−,−
"CCOc1nc([C@@H](CS(C)(=O)=O)n2c(=O)[nH]c3c(C)c(-c4ccc(OC)cc4F)cnc32)ccc1OC [Ex. 43, (S)-6-(2-fluoro-4-methoxyphenyl)-3-(1-(6-ethoxy-5-methoxypyridin-2-yl)-2-(methylsulfonyl)ethyl)-7-methyl-1H-imidazo[4,5-b]pyridin-2(3H)-one]",+,+,+
